What was measured:
[1] = system: A2780; experiment: In vitro cytotoxicity of compound was determined against A2780 cell lines (cisplatin resistant) at 37 degree C after 96 hr; assay type: functional, Homo sapiens
[2] = system: A2780; experiment: In vitro cytotoxicity of compound was determined against A2780 cell lines at 37 degree C after 96 hr; assay type: functional, Homo sapiens
[3] = system: Nucleic Acid; experiment: Change in temperature (thermal denaturation) was determined from calf thymus DNA at 37 degree Celsius for 0 hours; assay type: functional; conditions: Bos taurus
[4] = system: CH1; experiment: In vitro cytotoxicity of compound was determined against CH1 cell lines at 37 degree C after 96 hr; assay type: functional, Homo sapiens
[5] = system: CH1; experiment: In vitro cytotoxicity of compound was determined against CH1 (cisplatin resistant) cell lines at 37 degree C after 96 hr; assay type: functional, Homo sapiens
[6] = system: Nucleic Acid; experiment: Change in temperature (thermal denaturation) was determined from calf thymus DNA at 37 degree Celsius for 4 hours; assay type: functional; conditions: Bos taurus
[7] = system: SK-OV-3; experiment: In vitro cytotoxicity of compound was determined against SKOV-3 cell lines at 37 degree C after 96 hr; assay type: functional, Homo sapiens
[8] = Resistance factor of compound was determined from cisplatin resistant A2780 cell lines to that of A2780 cell lines; assay type: functional
[9] = Resistance factor of compound was determined from cisplatin resistant CH1 cell lines to that of CH1 cell lines; assay type: functional
[10] = system: Nucleic Acid; experiment: Change in temperature (thermal denaturation) was determined from calf thymus DNA at 37 degree Celsius for 18 hours; assay type: functional; conditions: Bos taurus
[11] = system: Nucleic Acid; experiment: Change in temperature (thermal denaturation) was determined from calf thymus DNA at 37 degree Celsius for 36 hours; assay type: functional; conditions: Bos taurus

SMILES	Cytotoxicity [1] [µM]	Cytotoxicity [2] [µM]	ΔTm [3] [°C]	Cytotoxicity [4] [µM]	Cytotoxicity [5] [µM]	ΔTm [6] [°C]	Cytotoxicity [7] [µM]	Resistance factor [8]	Resistance factor [9]	ΔTm [10] [°C]	ΔTm [11] [°C]
COc1cc2c(cc1OCc1ccccc1)N=C[C@@H]1CC(CCOC(C)=O)=CN1C2=O	0.27	0.1	1.57	0.105	0.16	2.11	0.46	2.7	1.5	2.53	–
COc1cc2c(cc1OCc1ccccc1)N=C[C@@H]1CC(CC#N)=CN1C2=O	0.43	0.155	1.84	0.105	0.27	2.31	0.52	2.8	2.6	4.31	–
Cc1ccc2c(c1O)N=C[C@@H]1CC(/C=C/C(N)=O)=CN1C2=O	0.16	0.155	9.4	0.062	0.05	11.2	0.16	1.03	0.81	13	–
COc1cc2c(cc1OCc1ccccc1)N=C[C@@H]1CC(CCO)=CN1C2=O	0.105	0.07	3.98	0.09	0.037	4.61	0.105	1.5	0.4	5.6	–
COc1cc2c(cc1OCc1ccccc1)N=C[C@@H]1CCCN1C2=O	0.48	0.17	0.2	0.145	0.145	0.4	0.46	2.8	1	0.4	–
COC(=O)CC1=CN2C(=O)c3cc(OC)c(OC)cc3N=C[C@@H]2C1	0.46	0.36	3.41	0.115	0.15	4.63	0.45	1.3	1.3	–	6.65
COC(=O)CC1=CN2C(=O)c3cc(OC)c(OCc4ccccc4)cc3N=C[C@@H]2C1	0.12	0.0145	3.08	0.016	0.04	3.96	0.12	8.3	2.5	–	4.97
